Measured values as given in US20250195478A1, “DUAL INHIBITORS OF VISTA AND PD-1 PATHWAYS” (Aurigene Oncology Limited, priority 2016, published 2025).

Key:
[1] = target: T1, Recombinant mouse PD-L1 (Mus musculus, UniProt Q9EP73); assay: Rescue of mouse splenocyte proliferation in the presence of recombinant PD-L1 (CFSE proliferation assay); assay type: cell-based; conditions: 100 nM compound; anti-CD3/CD28 stimulated mouse splenocytes + PD-L1; 72 h; stimulated splenocytes = 100%; read-out: PDL1 (rescue of proliferation @ 100 nM)
T1 construct: Fc (Fc chimera); purchased R&D Systems 1019-B7-100
T1 sequence (Q9EP73 19-238 limits assumed): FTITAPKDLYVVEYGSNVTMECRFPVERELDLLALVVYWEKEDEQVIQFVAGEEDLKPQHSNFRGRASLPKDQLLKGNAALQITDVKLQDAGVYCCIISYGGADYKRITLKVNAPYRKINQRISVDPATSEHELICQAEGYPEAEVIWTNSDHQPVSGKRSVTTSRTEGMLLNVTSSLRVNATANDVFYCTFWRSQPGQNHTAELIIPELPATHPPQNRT
Procedure: Example 1: Rescue of Mouse Splenocyte Proliferation in the Presence of Recombinant PD-L1/PD-L2
Recombinant mouse PD-L1 (rm-PDL-1, cat no: 1019-B7-100; R&D Systems) were used as the source of PD-L1.
Mouse splenocytes harvested from 6-8 weeks old C57 BL6 mice; RPMI 1640 (GIBCO, Cat #11875); DMEM with high glucose (GIBCO, Cat #D6429); Fetal Bovine Serum [Hyclone, Cat #SH30071.03]; Penicillin (10000unit/mL)-Streptomycin (10,000 μg/mL) Liquid (GIBCO, Cat #15140-122); MEM Sodium Pyruvate solution 100 mM (100×), Liquid (GIBCO, Cat #11360); Nonessential amino acid (GIBCO, Cat #11140); L-Glutamine (GIBCO, Cat #25030); Anti-CD3 antibody (eBiosciences-16-0032); Anti-CD28 antibody (eBiosciences-16-0281); ACK lysis buffer (1mL) (GIBCO, Cat #-A10492); Histopaque (density-1.083 gm/mL) (SIGMA 10831); Trypan blue solution (SIGMA-T8154); 2 mL Norm Ject Luer Lock syringe-(Sigma 2014-12); 40 μm nylon cell strainer (BD FALCON 35230); Hemacytometer (Bright line-SIGMA Z359629); FACS Buffer (PBS/0.1% BSA): Phosphate Buffered Saline (PBS) pH 7.2 (HiMedia TS1006) with 0.1% Bovine Serum Albumin (BSA) (SIGMA A7050) and sodium azide (SIGMA 08591); 5 mM stock solution of CFSE: CFSE stock solution was prepared by diluting lyophilized CFSE with 180 μL of Dimethyl sulfoxide (DMSO C2H6SO, SIGMA-D-5879) and aliquoted in to tubes for further use. Working concentrations were titrated from 10 μM to 1 μM. (eBioscience-650850-85); 0.05% Trypsin and 0.02% EDTA (SIGMA 59417C); 96-well format ELISA plates (Corning CLS3390); BD FACS caliber (E6016);
Recombinant mouse B7-H1/PDL1 Fc Chimera, (rm-PD-L1 cat no: 1019-B7-100).
Splenocytes harvested in a 50 mL falcon tube by mashing mouse spleen in a 40 μm cell strainer were further treated with 1 mL ACK lysis buffer for 5 min at room temperature.
After washing with 9 mL of RPMI complete media, cells were re-suspended in 3 mL of 1×PBS in a 15 mL tube. 3 mL of Histopaque was added carefully to the bottom of the tube without disturbing overlaying splenocyte suspension. After centrifuging at 800×g for 20 min at room temperature, the opaque layer of splenocytes was collected carefully without disturbing/mixing the layers. Splenocytes were washed twice with cold 1×PBS followed by total cell counting using Trypan Blue exclusion method and used further for cell based assays.
Splenocytes were cultured in RPMI complete media (RPMI +10% fetal bovine serum+1 mM sodium pyruvate+10,000units/mL penicillin and 10,000 μg/mL streptomycin) and maintained in a CO2 incubator with 5% CO2 at 37° C.
CFSE is a dye that passively diffuses into cells and binds to intracellular proteins. 1×10^6 cells/mL of harvested splenocytes were treated with 5 μM of CFSE in pre-warmed 1×PBS/0.1% BSA solution for 10 min at 37° C. Excess CFSE was quenched using 5 volumes of ice-cold culture media to the cells and incubated on ice for 5 min. CFSE labelled splenocytes were further given three washes with ice cold complete RPMI media. CFSE labelled 1×10^5 splenocytes added to wells containing either MDA-MB231 cells (1×10^5 cells cultured in high glucose DMEM medium) or recombinant […] PDL-1 (100 ng/mL) and test compounds. Splenocytes were stimulated with anti-mouse CD3 and anti-mouse CD28 antibody (lug/mL each), and the culture was further incubated for 72 h at 37° C. with 5% CO2. Cells were harvested and washed thrice with ice cold FACS buffer and % proliferation was analysed by flow cytometry with 488 nm excitation and 521 nm emission filters.
Percent splenocyte proliferation was analysed using cell quest FACS program and percent rescue of splenocyte proliferation by compound was estimated after deduction of % background proliferation value and normalising to % stimulated splenocyte proliferation (positive control) as 100%.
Stimulated splenocytes: Splenocytes+anti-CD3/CD28 stimulation
Background proliferation: Splenocytes+anti-CD3/CD28+PD-L1
Compound proliferation: Splenocytes+anti-CD3/CD28+PD-L1+Compound […]

[2] = target: T2, recombinant human VISTA (Homo sapiens, UniProt Q9H7M9); assay: Human PBMC IFN-γ release assay in the presence of recombinant human VISTA; assay type: cell-based; conditions: 100 nM compound, plate-coated VISTA + anti-CD3, anti-CD28, 72 h, ELISA
T2 construct: Fc (Fc chimera); purchased R&D Systems 7126-B7
T2 sequence (Q9H7M9 with tags, fused parts or gaps limits assumed): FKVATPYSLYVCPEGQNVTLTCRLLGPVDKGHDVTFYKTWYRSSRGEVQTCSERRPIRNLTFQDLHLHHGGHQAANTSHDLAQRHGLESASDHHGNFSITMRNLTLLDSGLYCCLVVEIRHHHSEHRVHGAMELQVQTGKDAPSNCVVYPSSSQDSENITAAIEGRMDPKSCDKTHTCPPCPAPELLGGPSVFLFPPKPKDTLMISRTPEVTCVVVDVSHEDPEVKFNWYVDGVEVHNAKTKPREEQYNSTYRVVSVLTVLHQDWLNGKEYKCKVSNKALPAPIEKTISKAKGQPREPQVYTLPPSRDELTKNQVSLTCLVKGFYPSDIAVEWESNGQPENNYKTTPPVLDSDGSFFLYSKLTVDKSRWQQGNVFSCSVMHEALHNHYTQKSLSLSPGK
Procedure: Example 2: Rescue of Mouse Splenocyte Proliferation in the Presence of Recombinant VISTA
Vehicle: Milli Q water; RPMI 1640 (GIBCO, Cat #11875); Fetal Bovine Serum [Hyclone, Cat #SH30071.03]; Penicilin (10000 unit/ml)-Streptomycin (10,000 μg/ml) liquid (GIBCO, Cat #15140-122); MEM Sodium Pyruvate solution 100 mM (100×), Liquid (GIBCO, Cat #11360); Nonessential amino acid (GIBCO, Cat #11140); L-Glutamine (GIBCO, Cat #25030); Recombinant human VISTA (rhGi24 VISTA/B7-H5 Fc chimera (R&D systems, cat no: 7126-B7); Anti-h/m Gi24/VISTA/B7-H5 purified mouse monoclonal IgG2B (R&D systems, cat no: MAB7126); Mouse IgG2B isotype control (R&D Systems cat no: MAB 004); Anti human-CD3 antibody (eBiosciences-16-0039); Anti human-CD28 antibody (eBiosciences-16-0289); Histopaque (density-1.077 gm/ml) (SIGMA 1077); Trypan Blue solution (SIGMA-T8154); Hemacytometer (Bright line-SIGMA Z359629); FACS Buffer containing Phosphate Buffered Saline (PBS) pH 7.2; (HiMedia TS1006) with 0.1% Bovine Serum Albumin (BSA) (SIGMA A7050) and sodium azide (SIGMA 08591); 96-well format ELISA plates (Corning 3599); 96-well format ELISA plates (Corning 3361); BD FACS caliber (E6016); Centrifuge (Eppendorf 5810 R); Human IFN-γ Duo set ELISA kit (R&D Systems; cat no: DY-285).
96-well cell culture plates were pre-coated with recombinant human VISTA (2.5 μg/ml) and anti-human CD3 (2.5 μg/ml), and stored at 4° C. overnight. Anti-human VISTA and isotype control antibodies were either coated along with the VISTA or incubated for 30 min next day before addition of cells. On the next day, plates were washed with 1×PBS and then incubated with test compounds for 30 min. Isolated PBMC (0.1×10^6 cells/well) and anti-human CD28 antibodies (lug/ml) were added to the wells. The culture was further incubated for 72 h at 37° C. with 5% CO2. After 72 h of incubation the cell culture supernatants were collected after brief centrifugation at 200 g×5 min at 4° C. and processed for human IFN-γ measurement by ELISA following manufacturer's protocol (R&D Systems; DY-285).
In brief, 96-well ELISA plates were coated with 100 μl/well of capture antibody in coating buffer and incubated overnight at 4° C. Plates were washed five times with wash buffer and further blocked with 200 μl of 1× assay diluents for 1 hr at RT. Following wash step, 100 μl of cell culture supernatants were added to wells and further incubated for 2 hr at RT. Appropriate standards were also included. After wash step, plate was incubated for one hour with 100 μl/well of detection antibody. The wash step was repeated and the plate was incubated for 30 min with 100 μl/well of Avidin-HRP. The plate was washed four times with wash buffer and subsequently incubated for 15 min with 100 μl/well of substrate solution. 50 μl of stop solution was added to each well and the plate was read at 450 nm using Gen5 ver 2.05. Delta OD values were used for calculating the concentrations. The absorbance values were plotted against the standards and the concentration of IFN-γ was determined using GraphPad Prism software. Each experimental condition was carried out in triplicates.
The percent rescue of IFN-γ release of the selected compounds of present invention are set forth below wherein “A” refers to compounds having more than 70% rescue of IFN-γ release, “B” refers to compounds having rescue of IFN-γ release ranges from 50% to 69.9% and “C” refers to compounds having less than 50% rescue of IFN-γ release.

| activation at 0.1 µM [1] | SMILES | VISTA (rescue of IFN γ release @ 100 nM) [2] |
| --- | --- | --- |
| 97% | CC(O)[C@H](NC(=O)N[C@@H](CC(N)=O)c1nc([C@@H](N)CO)no1)C(=O)O (some centres unmarked) [Compound 1] | A (more than 70% rescue of IFN-γ release) |
| 75% | CC(O)[C@H](NC(=O)N[C@@H](CC(N)=O)c1nc([C@@H](N)C(C)O)no1)C(=O)O (some centres unmarked) [Compound 2] | A (more than 70% rescue of IFN-γ release) |
| 91% | N[C@@H](CO)c1noc([C@H](CC(=O)O)NC(=O)N[C@@H](CO)C(=O)O)n1 [Compound 3] | C (less than 50% rescue of IFN-γ release) |
|  | NCCCC[C@H](NC(=O)N[C@@H](CC(N)=O)c1nc([C@@H](N)CO)no1)C(=O)O [Compound 4] | B (rescue of IFN-γ release ranges from 50% to 69.9%) |
|  | CC(O)[C@H](NC(=O)N[C@@H](CC(N)=O)c1nc([C@@H](N)Cc2ccc(O)cc2)no1)C(=O)O (some centres unmarked) [Compound 5] | A (more than 70% rescue of IFN-γ release) |
| 63% | CN[C@@H](CO)c1noc([C@H](CC(N)=O)NC(=O)N[C@H](C(=O)O)C(C)O)n1 (some centres unmarked) [Compound 6] | C (less than 50% rescue of IFN-γ release) |
| 96% | CC(O)[C@H](NC(=O)N[C@@H](CC(N)=O)c1nc([C@@H](N)CCCCN)no1)C(=O)O (some centres unmarked) [Compound 7] | C (less than 50% rescue of IFN-γ release) |
| 60% | CC(O)[C@H](NC(=O)N[C@@H](Cc1cc2ccccc2[nH]1)c1nc([C@@H](N)CO)no1)C(=O)O (some centres unmarked) [Compound 8] | B (rescue of IFN-γ release ranges from 50% to 69.9%) |
|  | CC(O)[C@H](NC(=O)N[C@H](c1nc([C@@H](N)CO)no1)C(C)C)C(=O)O (some centres unmarked) [Compound 9] | C (less than 50% rescue of IFN-γ release) |
|  | CCCCCCNC(=O)C[C@H](NC(=O)N[C@H](C(=O)O)C(C)O)c1nc([C@@H](N)CO)no1 (some centres unmarked) [Compound 10] | C (less than 50% rescue of IFN-γ release) |
|  | CCC(C)[C@H](NC(=O)N[C@@H](CCC(=O)O)C(=O)O)c1nc([C@@H](N)CCC(N)=O)no1 (some centres unmarked) [Compound 11] | C (less than 50% rescue of IFN-γ release) |
|  | NCCCC[C@H](N)c1noc([C@H](CCC(N)=O)NC(=O)N[C@@H](CO)C(=O)O)n1 [Compound 12] | B (rescue of IFN-γ release ranges from 50% to 69.9%) |
|  | N[C@@H](CO)c1noc([C@H](CO)NC(=O)N[C@@H](CO)C(=O)O)n1 [Compound 13] | B (rescue of IFN-γ release ranges from 50% to 69.9%) |
| 59% | N[C@@H](Cc1cnc[nH]1)c1noc([C@H](CC(=O)O)NC(=O)N[C@@H](CO)C(=O)O)n1 [Compound 14] | B (rescue of IFN-γ release ranges from 50% to 69.9%) |
| 70% | CC(O)[C@H](NC(=O)N[C@@H](CC(=O)O)c1nc([C@@H](N)CCCNC(=N)N)no1)C(=O)O (some centres unmarked) [Compound 15] | C (less than 50% rescue of IFN-γ release) |
|  | N=C(N)NCCC[C@H](N)c1noc([C@H](CC(=O)O)NC(=O)N[C@@H](CO)C(=O)O)n1 [Compound 16] | B (rescue of IFN-γ release ranges from 50% to 69.9%) |
|  | CC(=O)NCCCC[C@@H](NC(=O)N[C@H](C(=O)O)C(C)O)c1nc([C@@H](N)CO)no1 (some centres unmarked) [Compound 17] | C (less than 50% rescue of IFN-γ release) |
|  | CCCCCCNC(=O)CC[C@H](NC(=O)N[C@H](C(=O)O)C(C)O)c1nc([C@@H](N)CO)no1 (some centres unmarked) [Compound 18] | C (less than 50% rescue of IFN-γ release) |
|  | CC(O)[C@@H](NC(=O)N[C@@H](CC(N)=O)c1nc([C@@H](N)CO)no1)C(=O)O (some centres unmarked) [Compound 20] | A (more than 70% rescue of IFN-γ release) |
|  | CC(O)[C@H](NC(=O)N[C@@H](CC(N)=O)c1nc(C2(N)CCCC2)no1)C(=O)O (some centres unmarked) [Compound 25] | C (less than 50% rescue of IFN-γ release) |
|  | CCC(C)[C@H](NC(=O)N[C@H](C(=O)O)[C@@H](C)O)c1nc([C@@H](N)CO)no1 (some centres unmarked) [Compound 27] | A (more than 70% rescue of IFN-γ release) |
